System: wildtype (WT) human fibroblast cell lines
Assay: Transcriptome-wide splicing by RNA sequencing (RNASeq), exon triplet PSI change;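 as to Effect: six WT fibroblast lines treated seven days versus DMSO vehicle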;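 as to T-PSI: T-PSI is average treated PSI after seven days of treatment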
Assay type: cell-based
Set-up: key to Effect: Exclusion; Inclusion; Unchanged
From the text: FIG. 2A provides a representation of an exon triplet. Exon U is upstream of Exon X, which is upstream of Exon D. R1, R2 and R3 represent RNA sequencing (RNASeq) reads spanning the regions between two adjacent exons. UI1, I1X, XI2 and I2D are four regions flanking the four splice sites of the exon-triplet. Each flanking region consists of 25 exonic base pairs and 75 intronic base pairs.
FIG. 2B provides a volcano plot showing the ψ (PSI: Percent Spliced-In) changes in splicing after treatment with Compound (I). Each dot represents one of the 161,097 expressed exon triplets in human fibroblasts. The x axis represents the ψ changes after treatment and the y axis represents the False Discovery Rate (FDR) (log 10 transformed). […] The horizontal dashed line indicates an FDR of 0.1. The dots on the right side of the right vertical dashed line and above the horizontal dashed line represent the exon-triplets with an increase for Exon X inclusion (Δψ≥0.1 and FDR<0.1) while the dots on left side of the left vertical dashed line and above the horizontal dashed line represent an increase for Exon X exclusion (Δψ≤−0.1 and FDR<0.1). Black dots in-between the two vertical dashed lines represent exon-triplets unchanged from the treatment.
In some aspects, analysis is performed on data derived from the assay to measure the magnitude of splicing to determine the amount of exons spliced into an mRNA transcript that is produced in the presence of Compound (I) relative to the amount in the absence of Compound (I) or presence of a negative control. In a preferred aspect, the method utilized is calculation of change in Percent Spliced In (ΔPSI). […] The ΔPSI value is derived from the formula: […]
The values for “a” and “b” represent the number of reads supporting the probability for potential inclusion or exclusion of an exon in an RNA transcript. The “a” value is derived from the number of reads within an exon triplet covering, in 5′ to 3′ order: the last few bases (>1 nucleotide) of an upstream exon operably linked to the first few bases (>1 nucleotide) of a middle exon. The “b” value is derived from the number of reads within an exon triplet covering, in 5′ to 3′ order: the last few bases (>1 nucleotide) of the middle exon operably linked to the first few bases (>1 nucleotide) of a downstream exon. The number of reads will indicate whether the splice junction of a middle exon has been identified as potentially having a CNN Motif(s) by the CNN Model described herein, wherein the inclusion or exclusion of the middle exon may be modulated in the presence of Compound (I) to produce one or more mature RNA isoforms from the gene transcript. The value for “c” represents the number of reads supporting the exclusion of the middle exon.
The effect on splicing modulation and corresponding splice differences toward exon inclusion or exclusion was determined by counting the RNASeq reads covering two splice junctions of exon triplets (three consecutive exons: Exon U, Exon X, Exon D) and the corresponding intervening introns, then comparing the change in Percent Spliced In (ΔPSI or Δψ) of the middle exon (Exon X) after treatment (as shown in FIG. 2A)^52,53. 934 exon triplets were identified showing differential middle exon inclusion or exclusion in response to Compound (I) treatment. Of these, 254 were exon inclusion events (Δψ≥0.1 and FDR<0.1) and 680 were exon exclusion events (Δψ≤−0.1 and FDR<0.1) (as shown in FIG. 2B). […] The splicing results were evaluated by RT-PCR in independent replicate experiments, confirming all the calculated Δψ values. […]

[1] = NUTM2A-AS1 Exon 89067714-89067817
[2] = ORMDL1 Exon 190647740-190647849
[3] = OSBPL8 Exon 76853639-76853675, Intron1 76844760-76853638
[4] = OSBPL8 Exon 76853639-76853675, Intron1 76844769-76853638
[5] = OSER1-AS1 Exon 42846007-42846322
[6] = PACRGL Exon 20711306-20711396, Intron1 20706438-20711305
[7] = PACRGL Exon 20711306-20711396, Intron1 20709494-20711305

## Clc1nc(NCc2ccncc2)c2cc[nH]c2n1 [Compound (I), 2-chloro-N-(pyridin-4-ylmethyl)-7H-pyrrolo[2,3-d]pyrimidin-4-amine]
NUTF2 Exon 67881181-67881359
  T-PSI: 0.104
  ΔPSI: −0.003
[1]
  Effect: Exc
  T-PSI: 0.100
  ΔPSI: −0.120
OARD1 Exon 41036580-41036692
  Effect: Exc
  T-PSI: 0.563
  ΔPSI: −0.267
OCRL Exon 128718321-128718344
  Effect: Inc
  T-PSI: 0.364
  ΔPSI: 0.260
ODF2 Exon 131231462-131231632
  Effect: Exc
  T-PSI: 0.872
  ΔPSI: −0.102
ODF2L Exon 86822127-86822285
  Effect: Exc
  T-PSI: 0.514
  ΔPSI: −0.272
OFD1 Exon 13781864-13781974
  Effect: Inc
  T-PSI: 0.981
  ΔPSI: 0.131
OPN3 Exon 241767722-241767881
  Effect: Unc
  T-PSI: 0.437
  ΔPSI: −0.004
OPTN Exon 13150138-13150289
  Effect: Inc
  T-PSI: 0.387
  ΔPSI: 0.176
OPTN Exon 13150962-13151015
  Effect: Exc
  T-PSI: 0.121
  ΔPSI: −0.220
[2]
  Effect: Exc
  T-PSI: 0.407
  ΔPSI: −0.295
OS9 Exon 58113882-58114046
  Effect: Exc
  T-PSI: 0.344
  ΔPSI: −0.181
[3]
  Effect: Inc
  T-PSI: 0.296
  ΔPSI: 0.200
[4]
  Effect: Inc
  T-PSI: 0.269
  ΔPSI: 0.191
[5]
  Effect: Unc
  T-PSI: 0.153
  ΔPSI: 0.000
P4HA2 Exon 131562390-131562914
  Effect: Unc
  T-PSI: 0.155
  ΔPSI: −0.007
P4HA2 Exon 131562625-131562914
  Effect: Unc
  T-PSI: 0.160
  ΔPSI: −0.007
PACRGL Exon 20709426-20709493
  Effect: Exc
  T-PSI: 0.666
  ΔPSI: −0.179
[6]
  Effect: Exc
  T-PSI: 0.462
  ΔPSI: −0.305
[7]
  Effect: Exc
  T-PSI: 0.563
  ΔPSI: −0.242
PACRGL Exon 20726431-20726511
  Effect: Exc
  T-PSI: 0.095
  ΔPSI: −0.120
PAM Exon 102309820-102310140
  Effect: Exc
  T-PSI: 0.478
  ΔPSI: −0.123
PARD3 Exon 34625127-34625171
  Effect: Unc
  T-PSI: 0.805
  ΔPSI: −0.003
PARD3 Exon 34739245-34739376
  Effect: Exc
  T-PSI: 0.584
  ΔPSI: −0.165
PARL Exon 183551512-183551613
  Effect: Exc
  T-PSI: 0.819
  ΔPSI: −0.118
PARP6 Exon 72543186-72543295
  Effect: Inc
  T-PSI: 0.902
